Assay results taken from ChEMBL document CHEMBL3507680, “University of Dundee, Gates Library screen for HepG2 cell viability”.

Test: Human HepG2 cell viability assay in 384 well format
Type: toxicity, cell-based
Parameters: dose 125 nL, time 70.5 hour; cytotoxicity at 70.5 h: concentration not given beside the values
Conditions: HepG2 cells, read-out: Inhibition

CC(C)c1cn(CC(=O)NC2CC(=O)N(CCc3ccccc3)C2)nn1 (stereo not given)
cytotoxicity at 70.5 h: -3.95%

CNC(=O)c1ccc(-c2ccc(CNS(=O)(=O)N(C)C)cc2)nc1C
cytotoxicity at 70.5 h: -0.408%

Cc1cccc(CNC(=O)CC2CCN(S(C)(=O)=O)CC2)n1
cytotoxicity at 70.5 h: -4.65%

O=C(C1CCOCC1)N1C[C@H]2C[C@H](OCc3ccccc3)C[C@H]2C1
cytotoxicity at 70.5 h: -3.41%

O=C(CC1CCN(c2cccnn2)CC1)NC1CCOCC1
cytotoxicity at 70.5 h: -17%

CNC(=O)c1ccc(-c2ccc(CNC(=O)COC)cc2)nc1C
cytotoxicity at 70.5 h: -10.8%

Cc1cc(Cc2ccccc2F)cc(C2CCCNC2)n1 (stereo not given)
cytotoxicity at 70.5 h: -1.65%

CC(=O)N1CCCC1c1nccnc1NCc1cccnc1 (stereo not given)
cytotoxicity at 70.5 h: -8.19%

COCC(=O)N1CCCC1c1nc(C)c2c(n1)N(CC(C)C)C(=O)CC2 (stereo not given)
cytotoxicity at 70.5 h: -6.03%

CC(=O)N1CCC(c2cnc(NC3CCOCC3)cn2)CC1
cytotoxicity at 70.5 h: -6.84%

O=C(O)c1ccccc1-c1ccc(CN2CCC(CO)C2)cc1 (stereo not given)
cytotoxicity at 70.5 h: -6.69%

CC(C)C[C@H](N)COc1cccc(F)c1Oc1cccc(Cl)c1
cytotoxicity at 70.5 h: 26.3%

Cc1cnc(CCNC(=O)C2CN(C(=O)Cc3ccc(F)cc3)C2)s1
cytotoxicity at 70.5 h: 15.9%

CCCN1CCCCCC1Cc1c(C(=O)NC)sc2ccccc12 (stereo not given)
cytotoxicity at 70.5 h: 27.8%

Cn1cnc2ccc(NC(=O)CC3CCN(C4CCCCC4)CC3)cc21
cytotoxicity at 70.5 h: -4.48%

Cc1ccnc(C2CCN(c3ccnc(C)n3)C2)n1 (stereo not given)
cytotoxicity at 70.5 h: -12.3%

CN1C(=O)CO[C@H]2CN(C(=O)c3ccc4c(c3)CCCC4)C[C@@H]21
cytotoxicity at 70.5 h: 8.95%

Nc1nc(N)c2c(n1)OC1(CCCN(Cc3nccs3)CC1)C2 (stereo not given)
cytotoxicity at 70.5 h: -9.72%

CC(=O)N1CCCCC[C@@H]2[C@@H]1[C@H](c1cccc(F)c1)CN2C(C)=O
cytotoxicity at 70.5 h: -10.6%

CC(=O)N1CCCCC[C@@H]2[C@@H]1[C@H](c1cccc(F)c1)CN2C(=O)C1CC1
cytotoxicity at 70.5 h: -3.31%

CC(C)n1nnc(CC(=O)NCC2(c3ccccc3F)CCOCC2)n1
cytotoxicity at 70.5 h: -8.63%

Nc1c(C(=O)C2CCCN(C(=O)C3CC3)C2)cnn1-c1ccc(F)cc1 (stereo not given)
cytotoxicity at 70.5 h: -2.33%

Cc1cc(C)nc(N2CCC(c3cc(CCO)[nH]n3)C2)n1 (stereo not given)
cytotoxicity at 70.5 h: -12.4%

O=C1CN(C(=O)C2CN(c3ccc(F)cc3)CCO2)CCN1 (stereo not given)
cytotoxicity at 70.5 h: -7.29%

NCCC(=O)NCC1(O)CCCN(c2ccnc3cccnc23)C1 (stereo not given)
cytotoxicity at 70.5 h: -3.53%

CC(=O)N1CC(C(=O)NCCc2ncc(C)s2)C1
cytotoxicity at 70.5 h: -5.34%

c1ccc(Cc2cncc(C3CCCN3C3CCOCC3)n2)cc1 (stereo not given)
cytotoxicity at 70.5 h: -6.45%

Cc1cc(C)nc(N2CCC(Cn3cc(C(N)=O)cn3)CC2)n1
cytotoxicity at 70.5 h: -7.04%

CN1CCCCC1CC(=O)Nc1ccc2ncn(C)c2c1 (stereo not given)
cytotoxicity at 70.5 h: 13.5%

Cc1cc(C(=O)N(C)C)nc(C2(C)CCCN2c2ccnc(C)n2)n1 (stereo not given)
cytotoxicity at 70.5 h: -6.87%

Cc1ccnc(C2CN(c3ccnc(C)n3)C2)n1
cytotoxicity at 70.5 h: -5.49%

Cn1cc(CN2CCC(c3ccncc3)CC2)cn1
cytotoxicity at 70.5 h: -9.54%

Cc1cc(C)nc(N2CCC(Cn3cc(C(=O)N(C)C)cn3)CC2)n1
cytotoxicity at 70.5 h: -3.57%

Cc1cc(NCC2CCCCC2)n2ncnc2n1
cytotoxicity at 70.5 h: -2.65%

NCCCC(=O)NCC1(O)CCCN(c2ccnc3cccnc23)C1 (stereo not given)
cytotoxicity at 70.5 h: -4.51%

Cc1ncc(-c2ccncc2)c(C2CCCN(C(=O)c3ccno3)C2)n1 (stereo not given)
cytotoxicity at 70.5 h: 5.49%

CS(=O)(=O)c1cncnc1C1CCCN(C(=O)Nc2ccc(F)cc2)C1 (stereo not given)
cytotoxicity at 70.5 h: -4.34%

CS(=O)(=O)c1cncnc1C1CCCN(C(=O)Cc2ccccc2F)C1 (stereo not given)
cytotoxicity at 70.5 h: -7.69%

Cc1nc(C2CCN(S(C)(=O)=O)CC2)nc(N2CCCC2)c1C
cytotoxicity at 70.5 h: -3.13%

O=C(c1cc(-c2cccnc2)[nH]n1)N1CCCC(c2cnccn2)C1 (stereo not given)
cytotoxicity at 70.5 h: 12%

Cc1cccc(NC(=O)c2cnc(C3CCCNC3)cn2)n1 (stereo not given)
cytotoxicity at 70.5 h: -2.31%

CN1CCCCC1c1cncc(N2CCC(O)CC2)n1 (stereo not given)
cytotoxicity at 70.5 h: -0.469%

COCC1CN(C(C)=O)CCN(c2cc(C)ncn2)C1 (stereo not given)
cytotoxicity at 70.5 h: 10.4%

CO[C@H]1C[C@@H]2CN(C(=O)c3cc4cccc(F)c4[nH]3)C[C@@H]2C1
cytotoxicity at 70.5 h: -6.67%

CN1CCC(CCc2ccnc(NC(=O)c3ccccn3)c2)CC1
cytotoxicity at 70.5 h: 15.4%

CC(C)N1CCCCC1c1cc(CO)[nH]n1 (stereo not given)
cytotoxicity at 70.5 h: -3.81%

CN1CCN(C(=O)CCCc2ccccc2)CC(O)(Cn2cccn2)C1 (stereo not given)
cytotoxicity at 70.5 h: -2.15%

CC(C)n1nccc1C(=O)N1CCC(c2nnsc2S(C)(=O)=O)CC1
cytotoxicity at 70.5 h: -6.33%

O=C(Cc1ccn[nH]1)N1CCc2cc(Br)sc2C1
cytotoxicity at 70.5 h: -6.46%

Cc1noc(C)c1CNC1CCN(c2ccccc2OC(F)F)C1 (stereo not given)
cytotoxicity at 70.5 h: -3.18%

CCOc1ccc(N(CCC#N)C(=O)c2ccc(OC)nc2)cc1
cytotoxicity at 70.5 h: 1.85%

CC(NC(=O)NC1CCN(Cc2ccccn2)CC1)c1ccco1 (stereo not given)
cytotoxicity at 70.5 h: -1.3%

Cc1ccc(C(C)NC(=O)N2CCN(S(C)(=O)=O)CC2)o1 (stereo not given)
cytotoxicity at 70.5 h: 1.52%

CC(NC(=O)NC1CCN(Cc2ccccc2)CC1)c1nncn1C (stereo not given)
cytotoxicity at 70.5 h: 2.2%

CC(C)CN1CCC(C(=O)NCCNC(=O)c2ccoc2)CC1
cytotoxicity at 70.5 h: -1.22%

CC(C)CN1CCC(C(=O)NCCNC(=O)c2ccccc2)CC1
cytotoxicity at 70.5 h: -4.76%

CC(C)NC(=O)CCNC(=O)c1c(Br)c2ccccc2n1C
cytotoxicity at 70.5 h: -0.338%

N#Cc1cnn(C(=O)CCCOc2ccccc2Cl)c1N
cytotoxicity at 70.5 h: 9.75%

COCc1cccc(CNc2cnn(C(C)(C)C)c(=O)c2Cl)c1
cytotoxicity at 70.5 h: 41%

Cc1nc(CC(=O)N2CCN(C)CC2c2ccccc2)cs1 (stereo not given)
cytotoxicity at 70.5 h: -0.955%

COc1ccccc1OCC(=O)n1ncc(C#N)c1N
cytotoxicity at 70.5 h: 9.32%

COCc1ccc(CNc2cnn(C(C)(C)C)c(=O)c2Cl)cc1
cytotoxicity at 70.5 h: 19.8%

CC(=O)c1ccc(N2CCN(C(=O)NC(C)c3ccc(C)o3)CC2)cc1 (stereo not given)
cytotoxicity at 70.5 h: -3.78%

O=S(=O)(Nc1ccc(N2CCOCC2)cn1)c1ccc(F)cc1
cytotoxicity at 70.5 h: 9.02%

CC(NC(C)(C)CN)c1ccccc1 (stereo not given)
cytotoxicity at 70.5 h: -0.00601%

Cc1ccc(CNC(C)c2cc(F)ccc2N2CCN(C)CC2)o1 (stereo not given)
cytotoxicity at 70.5 h: 0.758%

Cc1ccc(C)c(SCC(=O)Nc2cccc(C(=O)N(C)C)n2)c1
cytotoxicity at 70.5 h: 11.9%

Cc1ccc(C)c(CC(=O)Nc2cccc(C(=O)N(C)C)n2)c1
cytotoxicity at 70.5 h: 5.58%

Cc1cc(F)cc2c(NCC(C)(C)C(N)=O)c(C#N)cnc12
cytotoxicity at 70.5 h: 11.6%

CCS(=O)(=O)NCCNc1c(C#N)cnc2c(C)cc(F)cc12
cytotoxicity at 70.5 h: 2.54%

CC(C)(C)NC(=O)N1CCC(NC(=O)Cc2cccnc2)CC1
cytotoxicity at 70.5 h: -3.09%

CCc1cccc(CC(=O)NC2CCN(C(=O)NC(C)(C)C)CC2)c1
cytotoxicity at 70.5 h: 1.52%

N#CCCCS(=O)(=O)NC(=O)c1cccc(Cl)c1F
cytotoxicity at 70.5 h: -2.7%

Cc1csc(N2CCCN(C(=O)c3cccs3)CC2)n1
cytotoxicity at 70.5 h: 3.15%

COc1cc(CC(=O)Nc2cccc(C(=O)N(C)C)n2)ccc1C
cytotoxicity at 70.5 h: 46.5%

CCOc1ccc(N(CCC#N)C(=O)c2ccc(SC)nc2)cc1
cytotoxicity at 70.5 h: -4%

CC(NC(=O)NC1CCN(Cc2ccccn2)CC1)c1nncn1C (stereo not given)
cytotoxicity at 70.5 h: -2%

COc1ccc(N(C)C(=O)C2CN(C)CCO2)cc1F (stereo not given)
cytotoxicity at 70.5 h: -12.3%

Cn1ccnc1CN1CCCCC1c1nc(-c2ccccc2)no1 (stereo not given)
cytotoxicity at 70.5 h: -10.6%

COc1ccc2c(c1)CCCN2C(=O)c1cccc(N(C)C)c1
cytotoxicity at 70.5 h: 3.26%

Cc1cc(C2CCCN2C(=O)COc2ccc(CC#N)cc2)no1 (stereo not given)
cytotoxicity at 70.5 h: -7.35%

O=C(Nc1c(N2CCCC2)cccc1N1CCCC1)c1ccccn1
cytotoxicity at 70.5 h: -12.8%

O=C1OCCN1CCSc1nnnn1C1CCOCC1
cytotoxicity at 70.5 h: -17.6%

COc1cc(Br)c(CNC(C)c2nnc3n2CCC3)cc1OC (stereo not given)
cytotoxicity at 70.5 h: 10.6%

O=C(C[S+]([O-])Cc1csc(C2CCCC2)n1)NC1CCCC1 (stereo not given)
cytotoxicity at 70.5 h: -1.25%

CC(C)(C)c1nccc(N2CCC(OCCN3CCCCC3)C2)n1 (stereo not given)
cytotoxicity at 70.5 h: -6.69%

CC(=O)N1CCCc2cc(Nc3nccn(C)c3=O)ccc21
cytotoxicity at 70.5 h: -7.29%

Cn1ccnc(Nc2ccc3c(c2)CCN3C(=O)c2ccoc2)c1=O
cytotoxicity at 70.5 h: -10%

Cn1ccnc(Nc2ccc3c(c2)CCN3C(=O)c2cccnc2)c1=O
cytotoxicity at 70.5 h: -11.5%

CCOc1c(Br)cc(CNC(C)c2nnc3n2CCC3)cc1OC (stereo not given)
cytotoxicity at 70.5 h: -4.89%

CC(C)S(=O)(=O)NC(=O)CC(c1ccccc1)C(F)(F)F (stereo not given)
cytotoxicity at 70.5 h: -9.01%

CCc1nc(Cn2nc(COC)oc2=O)cs1
cytotoxicity at 70.5 h: -9.78%

FC(F)(F)Cn1nnnc1SCCN1CCCCC1
cytotoxicity at 70.5 h: -7.69%

COc1ccc2c(c1)CC(NCc1cccc(CO)c1)CC2 (stereo not given)
cytotoxicity at 70.5 h: -6.72%

Cc1ccnc(N2CCC(OCCN3CCCCC3)C2)n1 (stereo not given)
cytotoxicity at 70.5 h: -8.76%

c1cnc(N2CCC(OCCN3CCCCC3)C2)nc1 (stereo not given)
cytotoxicity at 70.5 h: -10.2%

Cc1cc(C)nc(N2CCC(OCCN3CCCCC3)C2)n1 (stereo not given)
cytotoxicity at 70.5 h: 8.57%

CN(c1cccnc1N1CCCC1)S(=O)(=O)c1cnn(C)c1
cytotoxicity at 70.5 h: 5.43%

CC(Cn1cccn1)NCC(=O)NC1CCOCC1 (stereo not given)
cytotoxicity at 70.5 h: 6.94%

Cc1nn(C)c(C)c1NC(=O)CNC(c1ccc(F)cc1)C1CCC1 (stereo not given)
cytotoxicity at 70.5 h: -7.04%

CCCN(CC(=O)OC)C(=O)c1sc(C)nc1C
cytotoxicity at 70.5 h: -15.4%

Cc1ccc2nc(CN(C)Cc3ccc(C)o3)cc(=O)n2c1
cytotoxicity at 70.5 h: -15%

Cc1ccc2nc(CN(Cc3ccc(C)o3)C(C)C)cc(=O)n2c1
cytotoxicity at 70.5 h: -11.5%

Cc1ccc2nc(CN(Cc3ccc(C#N)cc3)C(C)C)cc(=O)n2c1
cytotoxicity at 70.5 h: 20.2%

CN(CC(=O)Nc1cc(C(F)(F)F)c[nH]c1=O)Cc1ccccc1
cytotoxicity at 70.5 h: -11.2%

CN(C)C(CNS(=O)(=O)c1cnn(C)c1)c1cccc(F)c1 (stereo not given)
cytotoxicity at 70.5 h: -1.66%

Cc1nc(Nc2nnc(C)s2)cc(C2CCCN2)n1 (stereo not given)
cytotoxicity at 70.5 h: -6.91%

O=C(O)C1(Cc2cccc(-c3cccs3)c2)CCCNC1 (stereo not given)
cytotoxicity at 70.5 h: 14.3%

CCn1ccnc1CN1CCN(c2cc(C)nc(C3CCCN3)c2)CC1 (stereo not given)
cytotoxicity at 70.5 h: -5.1%

Fc1ccc(-c2cnc(C3CCCN3)cn2)cc1 (stereo not given)
cytotoxicity at 70.5 h: -2.54%

Cn1cc([C@@H]2CN(S(=O)(=O)c3cccs3)C[C@H]2N)c2ccncc21
cytotoxicity at 70.5 h: 4.81%

Cn1cc([C@@H]2CN(S(=O)(=O)c3ccccc3F)C[C@H]2N)c2ccncc21
cytotoxicity at 70.5 h: 19%

Cc1ccc(S(=O)(=O)NC(C)(C)CN)c(F)c1
cytotoxicity at 70.5 h: -1.04%

CCOc1c(Br)cc(CNCCc2nnc3n2CCCCC3)cc1OC
cytotoxicity at 70.5 h: -10.5%

c1cc(CN2CCC(c3ccc4c(c3)OCO4)CC2)ccn1
cytotoxicity at 70.5 h: -1.06%
